From ChEMBL document CHEMBL1133236, “Synthesis and antifungal activities of 5/6-arylamino-4,7-dioxobenzothiazoles” (Bioorg Med Chem Lett, 2000)
In brackets after ≈: the same amount, converted by molar mass.

What was measured:
HepG2 = test: In vitro cytotoxicity against HepG2 cells (Hepatocarcinoma from ATCC) by MTT assay; assay type: functional, cell-based, Homo sapiens
Candida albicans = test: Antifungal activity against Candida albicans ATCC 10231; assay type: functional
Pichia kudriavzevii = test: Antifungal activity against Candida krusei ATCC 749; assay type: functional
Aspergillus niger = test: Antifungal activity against Aspergillus niger KCTC 1231; assay type: functional
Candida tropicalis = test: Antifungal activity against Candida tropicalis ATCC 28775; assay type: functional
[1] = Homo sapiens, HepG2, read-out: IC50

Row | Molecule | MIC (Candida albicans) [µg/mL] | MIC (Pichia kudriavzevii) [µg/mL] | MIC (Aspergillus niger) [µg/mL] | MIC (Candida tropicalis) [µg/mL] | IC50 (HepG2; [1]) [µg/mL] | IC50 (HepG2; hepg2) [µg/mL]
1 | COC1=CC(=O)c2sc(C)nc2C1=O | 25 (≈ 119 µM) | 50 (≈ 239 µM) | 12.5 (≈ 59.7 µM) | 25 (≈ 119 µM) |  | 
2 | O=C1C=C(Nc2ccc(OC(F)(F)F)cc2)C(=O)c2scnc21 | 12.5 (≈ 36.7 µM) | 3.2 (≈ 9.4 µM) | 3.2 (≈ 9.4 µM) | 12.5 (≈ 36.7 µM) | > 100 | 
3 | Cc1ccc(NC2=CC(=O)c3sc(C)nc3C2=O)cc1 | 6.3 (≈ 22.2 µM) | 1.6 (≈ 5.63 µM) | 12.5 (≈ 44 µM) | 1.6 (≈ 5.63 µM) | 1.2 (≈ 4.22 µM) | 
4 | Cc1nc2c(s1)C(=O)C=C(Nc1ccccc1)C2=O | 6.3 (≈ 23.3 µM) | 0.4 (≈ 1.48 µM) | 12.5 (≈ 46.2 µM) | 1.6 (≈ 5.92 µM) | 1.5 (≈ 5.55 µM) | 
5 | Cc1nc2c(s1)C(=O)C=C(Nc1ccc(F)cc1)C2=O | 3.2 (≈ 11.1 µM) | 3.2 (≈ 11.1 µM) | 3.2 (≈ 11.1 µM) | 6.3 (≈ 21.9 µM) | 1.6 (≈ 5.55 µM) | 
6 | CCOc1ccc(NC2=CC(=O)c3sc(C)nc3C2=O)cc1 | 3.2 (≈ 10.2 µM) | 3.2 (≈ 10.2 µM) | 1.6 (≈ 5.09 µM) | 6.3 (≈ 20 µM) | 4.9 (≈ 15.6 µM) | 
7 | Cc1nc2c(s1)C(=O)C=C(Nc1ccc(C)c(C)c1)C2=O | 12.5 (≈ 41.9 µM) | 3.2 (≈ 10.7 µM) | 12.5 (≈ 41.9 µM) | 0.4 (≈ 1.34 µM) | 4.8 (≈ 16.1 µM) | 
8 | O=C1C=C(Nc2ccccc2)C(=O)c2scnc21 | 12.5 (≈ 48.8 µM) | 6.3 (≈ 24.6 µM) | 3.2 (≈ 12.5 µM) | 6.3 (≈ 24.6 µM) | 14.7 (≈ 57.4 µM) | 
9 | CCCCCCc1ccc(NC2=CC(=O)c3sc(C)nc3C2=O)cc1 | 12.5 (≈ 35.3 µM) | 12.5 (≈ 35.3 µM) | 12.5 (≈ 35.3 µM) | 6.3 (≈ 17.8 µM) | 22 (≈ 62.1 µM) | 
10 | Nc1nc(=O)[nH]cc1F [FLUCYTOSINE] | 3.2 (≈ 24.8 µM) | 3.2 (≈ 24.8 µM) | 1.6 (≈ 12.4 µM) | 50 (≈ 387 µM) |  | 
11 | CISPLATIN |  |  |  |  |  | 0.33

The remaining molecules from weak to strong by MIC (Candida albicans), led by results:

Row | MIC (Candida albicans) [µg/mL] | MIC (Pichia kudriavzevii) [µg/mL] | MIC (Aspergillus niger) [µg/mL] | MIC (Candida tropicalis) [µg/mL] | Molecule | IC50 (HepG2; [1]) [µg/mL] | IC50 (HepG2; hepg2) [µg/mL]
12 | 50 (≈ 256 µM) | 12.5 (≈ 64 µM) | 25 (≈ 128 µM) | 25 (≈ 128 µM) | COC1=CC(=O)c2ncsc2C1=O |  | 
13 | 12.5 (≈ 45.6 µM) | 3.2 (≈ 11.7 µM) | 3.2 (≈ 11.7 µM) | 6.3 (≈ 23 µM) | O=C1C=C(Nc2ccc(F)cc2)C(=O)c2scnc21 | 17.9 (≈ 65.3 µM) | 
14 | 12.5 (≈ 35.8 µM) | 6.3 (≈ 18 µM) | 12.5 (≈ 35.8 µM) | 0.8 (≈ 2.29 µM) | Cc1nc2c(s1)C(=O)C=C(Nc1cccc(Br)c1)C2=O | 15 (≈ 43 µM) | 
15 | 12.5 (≈ 41 µM) | 25 (≈ 82 µM) | 6.3 (≈ 20.7 µM) | 25 (≈ 82 µM) | Cc1nc2c(s1)C(=O)C=C(Nc1ccc(Cl)cc1)C2=O | 3.4 (≈ 11.2 µM) | 
16 | 12.5 (≈ 41 µM) | 6.3 (≈ 20.7 µM) | 12.5 (≈ 41 µM) | 6.3 (≈ 20.7 µM) | Cc1nc2c(s1)C(=O)C=C(Nc1cccc(Cl)c1)C2=O | 5.7 (≈ 18.7 µM) | 
17 | 12.5 (≈ 43 µM) | 25 (≈ 86 µM) | 12.5 (≈ 43 µM) | 12.5 (≈ 43 µM) | O=C1C=C(Nc2ccc(Cl)cc2)C(=O)c2scnc21 | 16.4 (≈ 56.4 µM) | 
18 | 12.5 (≈ 41.6 µM) | 6.3 (≈ 21 µM) | 3.2 (≈ 10.7 µM) | 12.5 (≈ 41.6 µM) | CCOc1ccc(NC2=CC(=O)c3ncsc3C2=O)cc1 | 23.6 (≈ 78.6 µM) | 
19 | 12.5 (≈ 45.6 µM) | 3.2 (≈ 11.7 µM) | 1.6 (≈ 5.83 µM) | 12.5 (≈ 45.6 µM) | O=C1C=C(Nc2cccc(F)c2)C(=O)c2scnc21 | > 100 | 
20 | 12.5 (≈ 35.3 µM) | 25 (≈ 70.6 µM) | 6.3 (≈ 17.8 µM) | 0.8 (≈ 2.26 µM) | Cc1nc2c(s1)C(=O)C=C(Nc1ccc(OC(F)(F)F)cc1)C2=O | > 100 | 
21 | 12.5 (≈ 36.9 µM) | 3.2 (≈ 9.46 µM) | 6.3 (≈ 18.6 µM) | 12.5 (≈ 36.9 µM) | Cc1nc2c(s1)C(=O)C=C(Nc1ccc(C(F)(F)F)cc1)C2=O | > 100 | 
